From ChEMBL document CHEMBL4619806, “Screening of a Custom-Designed Acid Fragment Library Identifies 1-Phenylpyrroles and 1-Phenylpyrrolidines as Inhibitors of Notum Carboxylesterase Activity” (J Med Chem, 2020)
pIC50: −log10 of the molar value. In brackets after ≈: the same amount, converted by molar mass.

Key:
[1] = target: T1, Palmitoleoyl-protein carboxylesterase NOTUM (Homo sapiens, UniProt Q6P988, C330S); assay: Inhibition of human Notum (S81 to T451 residues) Cys330Ser mutant expressed in HEK293S GnTI cells using OPTS as substrate incubated for 40 mins by fluorescence based assay
[2] = target: T1, Palmitoleoyl-protein carboxylesterase NOTUM; assay: Inhibition of human Notum (S81 to T451 residues) Cys330Ser mutant expressed in HEK293S GnTI cells at 100 uM using OPTS as substrate incubated for 40 mins by fluorescence based assay relative to control
[3] = Apparent permeability from basolateral to apical side in MDCK2-MDR1 cells at 10 uM measured up to 120 mins by LC-MS/MS analysis; format: ADME, cell-based, Canis lupus familiaris; settings: dog, MDCK-MDR1
[4] = Intrinsic clearance in mouse liver microsomes at 1 uM measured up to 60 mins in presence of NADPH by LC-MS/MS analysis; format: ADME, Microsome; settings: read-out: CLH
[5] = Chromatographic hydrophobicity index, log D of the compound at pH 7.4; format: physicochemical; settings: buffer
[6] = Apparent permeability from apical to basolateral side in MDCK2-MDR1 cells at 10 uM measured up to 120 mins by LC-MS/MS analysis; format: ADME, cell-based, Canis lupus familiaris; settings: dog, MDCK-MDR1
[7] = Aqueous solubility at pH 7.4; format: physicochemical; settings: buffer
[8] = Efflux ratio of apparent permeability in MDCK2-MDR1 cells at 10 uM measured up to 120 mins by LC-MS/MS analysis; format: ADME, cell-based, Canis lupus familiaris; settings: dog, MDCK-MDR1

T1 sequence (Q6P988 20-496 C330S limits assumed): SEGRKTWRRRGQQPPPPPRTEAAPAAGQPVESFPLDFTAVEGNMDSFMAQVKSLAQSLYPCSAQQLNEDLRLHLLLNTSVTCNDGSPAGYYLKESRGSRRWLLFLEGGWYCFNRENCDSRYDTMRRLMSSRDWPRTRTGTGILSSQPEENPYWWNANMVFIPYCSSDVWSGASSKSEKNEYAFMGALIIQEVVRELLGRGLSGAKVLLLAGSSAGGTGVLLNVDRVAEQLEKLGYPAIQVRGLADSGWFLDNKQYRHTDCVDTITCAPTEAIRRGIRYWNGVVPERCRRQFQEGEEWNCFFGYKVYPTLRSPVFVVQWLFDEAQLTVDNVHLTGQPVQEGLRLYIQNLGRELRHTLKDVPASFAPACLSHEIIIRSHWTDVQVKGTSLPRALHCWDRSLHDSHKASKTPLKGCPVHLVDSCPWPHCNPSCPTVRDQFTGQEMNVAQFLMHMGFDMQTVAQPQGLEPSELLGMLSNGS

| SMILES | pIC50 [1] | other results |
| --- | --- | --- |
| Cc1cc(C(=O)O)c(C)n1-c1ccccc1 | 5.77 | – |
| Cc1cc(C(=O)O)c(C)n1Cc1ccccc1 | 4.85 | – |
| Cc1cc(C(=O)O)c(C)n1C1CC1 | 5.20 | – |
| Cc1cc(C(=O)O)c(C)n1-c1ccc(F)cc1 | 5.72 | – |
| Cc1ccc(-n2c(C)cc(C(=O)O)c2C)cc1 | 5.70 | – |
| Cc1cc(C(=O)O)c[nH]1 | 4.00 | inhibition at 100 µM [2]: 50% |
| COc1cccc(-n2c(C)cc(C(=O)O)c2C)c1 | 5.82 | – |
| COc1c(Cl)cccc1-n1c(C)cc(C(=O)O)c1C | 6.10 | – |
| Cc1cccc(-n2c(C)cc(C(=O)O)c2C)c1 | 5.82 | – |
| Cc1cc(C(=O)O)c(C)n1-c1cccc(C(C)C)c1 | 6.44 | – |
| Cc1cc(C(=O)O)c(C)n1-c1cccc(F)c1 | 5.82 | – |
| Cc1cc(C(=O)O)c(C)n1-c1cccc(Cl)c1F | 6.42 | – |
| Cc1cc(C(=O)O)c(C)n1-c1cccc(Cl)c1C#N | 5.70 | – |
| Cc1[nH]ccc1C(=O)O | < 4.00 | inhibition at 100 µM [2]: < 20% |
| Cc1cc(C(=O)O)c(C)n1C | < 4.00 | inhibition at 100 µM [2]: 20 to 40% |
| O=C(O)[C@H]1CCN(c2ccc(Cl)c(C(F)(F)F)c2)C1 | – | Papp B→A at 2 h, 10 µM [3]: 43 ×10⁻⁶ cm/s; microsomal CLint at 1 µM [4]: 2.5 µL/min/mg; chromatographic logD [5]: 1.5; Papp A→B at 2 h, 10 µM [6]: 39 ×10⁻⁶ cm/s; solubility [7]: > 595 µM |
| Cc1cc(C(=O)O)c(C)n1-c1cccc(C(F)(F)F)c1 | 5.82 | – |
| Cc1cc(C(=O)O)c(C)n1-c1c(Cl)cccc1Cl | 5.64 | – |
| Cc1cc(C(=O)O)c(C)n1-c1cccc(C2CC2)c1 | 6.24 | – |
| O=C(O)c1c[nH]c(C(F)(F)F)c1 | < 4.00 | inhibition at 100 µM [2]: < 20% |
| Cc1cc(C(=O)O)c(C)n1-c1cccc(C2CC2)c1F | 6.70 | – |
| Cc1cc(C(=O)O)c(C)n1-c1cc(Cl)ccc1Cl | 5.77 | – |
| CCOc1cccc(-n2c(C)cc(C(=O)O)c2C)c1 | 6.19 | – |

| SMILES | pIC50 [1] | other results |
| --- | --- | --- |
| Cc1c(C(=O)O)ccn1Cc1ccccc1 | 5.51 | – |
| Cc1cc(C(=O)O)c(C)n1-c1cc(Cl)cc(Cl)c1 | 6.07 | – |
| Cc1cc(C(=O)O)c(C)n1-c1cccc(C#N)c1 | 5.51 | – |
| Cc1[nH]c(C(F)(F)F)cc1C(=O)O | 5.17 | – |
| Cc1cc(C(=O)O)c(C)n1-c1ccccc1F | 5.48 | – |
| Cc1cc(C(=O)O)c(C)n1-c1ccc(Cl)c(Cl)c1 | 6.57 | – |
| Cc1cc(C(=O)O)c(C)n1-c1cccc(C(C)(C)C)c1 | 6.34 | – |
| Cc1cc(C(=O)O)c(C)n1-c1cccc(Cl)c1 | 6.37 | – |
| Cc1cc(C(=O)O)c(C)[nH]1 | < 4.00 | inhibition at 100 µM [2]: < 20% |
| Cc1cc(C(=O)O)c(C)n1-c1ccc(Cl)cc1Cl | 6.37 | – |
| Cc1c(C(=O)O)ccn1-c1ccccc1 | 5.42 | – |
| Cc1c[nH]c(C)c1C(=O)O | 4.00 | inhibition at 100 µM [2]: 50% |
| Cc1cc(C(=O)O)c(C)n1-c1cccc(C#N)c1F | 6.20 | – |
| Cc1ccccc1-n1c(C)cc(C(=O)O)c1C | 5.66 | – |
| Cc1cc(C(=O)O)c(C)n1-c1ccccc1Cl | 5.64 | – |
| Cc1cc(C(=O)O)c(C)n1-c1cccc(C(C)C)c1F | 6.82 | Papp B→A at 2 h, 10 µM [3]: 43 ×10⁻⁶ cm/s; microsomal CLint at 1 µM [4]: 52 µL/min/mg; efflux ratio at 2 h, 10 µM [8]: 0.93; chromatographic logD [5]: 3.1; Papp A→B at 2 h, 10 µM [6]: 46 ×10⁻⁶ cm/s; solubility [7]: 51 µM (≈ 14 µg/mL) |
| Cc1cc(C(=O)O)c(C)n1-c1cccc(Cl)c1Cl | 6.66 | – |
| Cc1cc(C(=O)O)c(C)n1CC1CC1 | 4.90 | – |
| O=C(O)C1CCN(c2ccccc2F)C1 (configuration not stated) | 4.95 to 4.96 | – |
| Cc1c(C(=O)O)cc(C(F)(F)F)n1-c1ccccc1 | 4.66 | – |
| Cc1cc(C(=O)O)c(C)n1-c1ccc(Cl)cc1 | 6.07 | – |
| Cc1c[nH]cc1C(=O)O | 4.00 | inhibition at 100 µM [2]: 50% |
| O=C(O)c1cc[nH]c1 | < 4.00 | inhibition at 100 µM [2]: < 20% |

The next lines start with results.

| pIC50 [1] | SMILES | other results |
| --- | --- | --- |
| 6.39 | O=C(C1CCN(c2ccc(Cl)c(C(F)(F)F)c2)C1)N1CCCC1 (configuration not stated) | – |
| 5.46 | COCCNC(=O)C1CCN(c2ccc(Cl)c(C(F)(F)F)c2)C1 (configuration not stated) | – |
| 5.85 | CN1CN(C(=O)C2CCN(c3ccc(Cl)c(C(F)(F)F)c3)C2)CC1=O (configuration not stated) | – |
| 5.51 | CN1CCN(C(=O)C2CCN(c3ccc(Cl)c(C(F)(F)F)c3)C2)CC1=O (configuration not stated) | – |
| 5.01 | O=C(C1CCN(c2ccc(Cl)c(C(F)(F)F)c2)C1)N1CCOCC1 (configuration not stated) | – |
| < 4.00 | Cc1c(C(=O)O)cc(C(F)(F)F)n1Cc1ccccc1 | inhibition at 100 µM [2]: 20 to 40% |
| 5.89 | CNC(=O)C1CCN(c2ccc(Cl)c(C(F)(F)F)c2)C1 (configuration not stated) | – |
| 5.17 | O=C(O)C1CCN(c2cccc(C(F)(F)F)c2F)C1 (configuration not stated) | – |
| 5.38 | O=c1[nH]nc(C2CCN(c3ccc(Cl)c(C(F)(F)F)c3)C2)o1 (configuration not stated) | Papp B→A at 2 h, 10 µM [3]: 19 ×10⁻⁶ cm/s; microsomal CLint at 1 µM [4]: 10 µL/min/mg; efflux ratio at 2 h, 10 µM [8]: 1.5; chromatographic logD [5]: 3.5; Papp A→B at 2 h, 10 µM [6]: 13 ×10⁻⁶ cm/s; solubility [7]: 69 µM (≈ 23 µg/mL) |
| 6.00 | O=C(Nc1ccccc1)C1CCN(c2ccc(Cl)c(C(F)(F)F)c2)C1 (configuration not stated) | – |
| 6.59 | O=C(C1CCN(c2ccc(Cl)c(C(F)(F)F)c2)C1)N1CC(F)(F)C1 (configuration not stated) | Papp B→A at 2 h, 10 µM [3]: 10 ×10⁻⁶ cm/s; microsomal CLint at 1 µM [4]: 21 µL/min/mg; efflux ratio at 2 h, 10 µM [8]: 1.2; chromatographic logD [5]: 4; Papp A→B at 2 h, 10 µM [6]: 8 ×10⁻⁶ cm/s; solubility [7]: 19 µM (≈ 7.01 µg/mL) |
| 5.82 | Cc1cc(C(=O)O)c(C)n1-c1ccc(C(F)(F)F)c(Cl)c1 | – |
| 4.72 | O=C(O)C1CCN(c2ccccc2Cl)C1 (configuration not stated) | – |
| 5.92 | CN(C)C(=O)C1CCN(c2ccc(Cl)c(C(F)(F)F)c2)C1 (configuration not stated) | – |
| 5.51 | O=C(C1CCN(c2ccc(Cl)c(C(F)(F)F)c2)C1)N1CC2COCC2C1 (configuration not stated) | – |
| 5.68 | Cc1cc(C(=O)O)c(C)n1-c1ccc(Cl)c(C(F)(F)F)c1 | – |
| 4.62 | FC(F)(F)c1cc(N2CCC(c3nnco3)C2)ccc1Cl (configuration not stated) | – |
| 4.31 | Cc1cccc(N2CCC(C(=O)O)C2)c1 (racemic) | – |

| pIC50 [1] | SMILES | other results |
| --- | --- | --- |
| 4.82 | O=C(O)C1CCN(c2ccc(F)cc2)C1 (racemic) | – |
| 4.96 | O=C(O)C1CCN(c2cccc(C(F)(F)F)c2)C1 (racemic) | – |
| 5.10 | O=C(O)C1CCN(c2cc(Cl)ccc2Cl)C1 (racemic) | – |
| 6.22 | O=C(O)C1CCN(c2ccc(Cl)c(Cl)c2Cl)C1 (racemic) | – |
| 4.20 | O=C(O)C1CCN(c2cccc(OC(F)(F)F)c2)C1 (racemic) | – |
| 4.96 | O=C(O)C1CCN(c2cc(Cl)cc(Cl)c2)C1 (racemic) | – |
| 4.85 | O=C(O)C1CCN(c2cccc(Cl)c2)C1 (racemic) | – |
| 4.72 | O=C(O)C1CCN(c2ccc(Cl)cc2)C1 (racemic) | – |
| 5.10 | O=C(O)C1CCN(c2cccc(Cl)c2Cl)C1 (racemic) | – |
| 5.60 | O=C(O)C1CCN(c2ccc(F)c(C(F)(F)F)c2)C1 (racemic) | – |
| 4.38 | N#Cc1cccc(N2CCC(C(=O)O)C2)c1 (racemic) | – |
| 4.59 | O=C(O)C1CCN(c2c(Cl)cccc2Cl)C1 (racemic) | – |
| 5.92 | O=C(O)C1CCN(c2ccc(Cl)c(Cl)c2)C1 (racemic) | – |
| 4.30 | O=C(O)C1CCN(c2ccc(C(F)(F)F)cc2)C1 (racemic) | – |
| 5.07 | O=C(O)C1CCN(c2ccc(C(F)(F)F)c(Cl)c2)C1 (racemic) | – |
| 4.24 | CC(C)c1cccc(N2CCC(C(=O)O)C2)c1 (racemic) | – |
| 5.00 | O=C(O)C1CCN(c2ccc(Cl)cc2Cl)C1 (racemic) | – |
